Test results reported in patent US20090018111A1, “Novel Antimicrobial Medicament” (priority 2004, published 2009).
Where two headings read alike, the source gives them in different places.

What was measured:
[1] = system: E. coli ML1410; experiment: Sensitivity test (agar dilution); assay type: cell-based, Escherichia coli; conditions: Escherichia coli, E. coli ML1410
Procedure, shortened: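 Water-dissolved compounds, alone or mixed, were incorporated into Mueller Hinton agar at twofold serial concentrations. Spot inoculation used about 5 μl of about 10^6 CFU/ml suspension.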

[2] = system: 18 bacteria (27 standard strains); experiment: Sensitivity test, combination effect over the standard strains; assay type: cell-based; conditions: in combination with compound 1, standard strains
Protocol: The antibacterial activities were tested against various 18 bacteria (27 standard strains) which are representative bacteria caused clinically infectious disease (Staphylococcus aureus 3 strains, Staphylococcus epidermidis 1 strain, Micrococcus luteus 1 strain, Streptococcus pyogenes 1 strain, Enterococcus faecalis 1 strain, Enterococcus faecium 1 strain, Bacillus subtilis 1 strain, Escherichia coli 3 strains, Klebsiella pneumoniae 1 strain, Proteus mirabilis 1 strain, Proteus vulgaris 2 strains, Pseudomonas aeruginosa 3 strains, Serratia marcescens 2 strains, Enterobacter aerogenes 1 strain, Stenotrophomonas maltophilia 1 strain, Enterobacter cloacae 1 strain, Citrobacter freundii 1 strain, Moraxella catarrhalis 2 strains).
According to the standard method of Japan Chemotherapeutic Society (Chemotherapy, vol. […], p 76-79 (1981)) the test was carried out using the agar dilution method. After dissolving test samples in distilled water, agar medium containing the test samples was prepared in such a manner that the final concentration became twice serial dilution by pouring serially diluted combination drug solution or a single drug solution into agar medium. As agar medium was used Mueller Hinton Agar medium (MHA). Then, each strain was cultivated over night at 37° C. in an incubator and suspended in buffered saline solution with gelatin (BSG) in the concentration of about 10^6 CFU/ml. The suspension (about 5 μl) containing test strains was inoculated to the medium containing the test samples by Micro Planter.
When the sample is subjected to sensitivity test, this mixed solution was diluted by twice serial dilution method.
FIC index based on MIC value was calculated. […] Namely, when FIC index calculated by the following formula is equal or less than 1, the enhanced effect of the combination drug in said ratio is considered as positive. When FIC index is over 1, the enhanced effect of the combination drug in said ratio is considered as negative.
Formula of FIC index: FIC index=(MIC of Drug A in combination/MIC of Drug A alone)+(MIC of Drug B in combination/MIC of Drug B alone) N.C. in tables means being not calculated.

[3] = ML1410, drug alone, read-out: MIC alone

Compound	MIC ([1]; ML1410, Concomitant (AZT:SM = 1:1), read-out: MIC concomitant)	MIC [1, 3]	MIC ([1]; ML1410, Concomitant (BIPM:SM = 1:1), read-out: MIC concomitant)	combination effect [2]	MIC ([1]; ML1410, Concomitant (CAZ:SM = 1:1), read-out: MIC concomitant)
C[C@H]1[C@H](NC(=O)/C(=N\OC(C)(C)C(=O)O)c2csc(N)n2)C(=O)N1S(=O)(=O)O [AZT, aztreonam]	0.063 µg/mL	0.125 µg/mL			
C[C@@H](O)[C@H]1C(=O)N2C(C(=O)[O-])=C(SC3Cn4cnc[n+]4C3)[C@H](C)[C@H]12 (some centres unmarked) [BIPM, biapenem]		0.25 µg/mL	0.063 µg/mL	the combination effect was recognized	
CC(C)(O/N=C(\C(=O)N[C@@H]1C(=O)N2C(C(=O)[O-])=C(C[n+]3ccccc3)CS[C@H]12)c1csc(N)n1)C(=O)O [CAZ, ceftazidime]		0.25 µg/mL		antagonism was recognized	0.063 µg/mL
